# Several values for one entry are separate records, joined by “and”; a condition that tells them apart may be missing. Equal entries are not always repeated.
# Columns and labels:
# [1] = target: DUBs and other proteins in HEK293 cells (Homo sapiens, UniProt Q96BN8); assay: In-cell proteome-wide competitive ABPP, HEK293: other DUBs and proteins; conditions: replicates A-C; for Log2 reporter intensity values: OTULIN: DMSO substract (FC); for Log2 reporter intensity values: OTULIN, DMSO subtracted
# DUBs and other proteins in HEK293 cells (Homo sapiens, UniProt Q96BN8), sequence (Q96BN8 whole entry): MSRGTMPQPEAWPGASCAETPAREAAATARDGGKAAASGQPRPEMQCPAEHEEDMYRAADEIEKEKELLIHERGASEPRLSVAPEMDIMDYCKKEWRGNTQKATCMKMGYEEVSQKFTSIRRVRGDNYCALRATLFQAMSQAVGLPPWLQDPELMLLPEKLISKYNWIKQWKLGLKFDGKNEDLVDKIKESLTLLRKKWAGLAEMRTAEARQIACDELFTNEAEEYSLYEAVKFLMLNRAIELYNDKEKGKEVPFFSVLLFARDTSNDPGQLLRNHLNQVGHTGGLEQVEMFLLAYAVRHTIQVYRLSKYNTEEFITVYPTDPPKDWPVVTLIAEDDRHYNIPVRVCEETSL
# [2] = target: DUBs and other proteins in HEK293 cells (Homo sapiens, UniProt Q92905); assay: as above; conditions: for Log2 reporter intensity values, COPS5: TMT replicates; for Log2 reporter intensity values: COPS5: DMSO substract (FC); for Log2 reporter intensity values: COPS5 / Log2 reporter intensity values: replicates A-C; for Log2 reporter intensity values / Log2 t-test Difference: COPS5
# DUBs and other proteins in HEK293 cells (Homo sapiens, UniProt Q92905), sequence (Q92905 whole entry): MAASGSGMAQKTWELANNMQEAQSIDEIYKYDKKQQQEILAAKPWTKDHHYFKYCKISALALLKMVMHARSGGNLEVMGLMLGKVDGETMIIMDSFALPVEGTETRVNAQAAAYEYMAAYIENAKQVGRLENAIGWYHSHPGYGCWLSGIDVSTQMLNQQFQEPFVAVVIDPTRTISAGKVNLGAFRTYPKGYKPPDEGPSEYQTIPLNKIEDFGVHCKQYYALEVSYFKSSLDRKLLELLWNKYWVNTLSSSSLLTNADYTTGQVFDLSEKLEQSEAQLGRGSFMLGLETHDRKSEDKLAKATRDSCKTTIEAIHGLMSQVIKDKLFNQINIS
# [3] = target: DUBs and other proteins in HEK293 cells (Homo sapiens, UniProt Q6P2Q9); assay: as above; conditions: replicates A-C; for Log2 reporter intensity values: PRPF8: DMSO substract (FC); for Log2 reporter intensity values: PRPF8, DMSO subtracted
# USP4 = target: T1, USP4 (Homo sapiens, UniProt Q13107); assay: Biochemical DUB selectivity profiling assay: USP4; conditions: Ub-Lys-TAMRA 50 nM, buffer A; read-out: Biochemical IC50 range, USP4
# T1 sequence (Q13107 1-963): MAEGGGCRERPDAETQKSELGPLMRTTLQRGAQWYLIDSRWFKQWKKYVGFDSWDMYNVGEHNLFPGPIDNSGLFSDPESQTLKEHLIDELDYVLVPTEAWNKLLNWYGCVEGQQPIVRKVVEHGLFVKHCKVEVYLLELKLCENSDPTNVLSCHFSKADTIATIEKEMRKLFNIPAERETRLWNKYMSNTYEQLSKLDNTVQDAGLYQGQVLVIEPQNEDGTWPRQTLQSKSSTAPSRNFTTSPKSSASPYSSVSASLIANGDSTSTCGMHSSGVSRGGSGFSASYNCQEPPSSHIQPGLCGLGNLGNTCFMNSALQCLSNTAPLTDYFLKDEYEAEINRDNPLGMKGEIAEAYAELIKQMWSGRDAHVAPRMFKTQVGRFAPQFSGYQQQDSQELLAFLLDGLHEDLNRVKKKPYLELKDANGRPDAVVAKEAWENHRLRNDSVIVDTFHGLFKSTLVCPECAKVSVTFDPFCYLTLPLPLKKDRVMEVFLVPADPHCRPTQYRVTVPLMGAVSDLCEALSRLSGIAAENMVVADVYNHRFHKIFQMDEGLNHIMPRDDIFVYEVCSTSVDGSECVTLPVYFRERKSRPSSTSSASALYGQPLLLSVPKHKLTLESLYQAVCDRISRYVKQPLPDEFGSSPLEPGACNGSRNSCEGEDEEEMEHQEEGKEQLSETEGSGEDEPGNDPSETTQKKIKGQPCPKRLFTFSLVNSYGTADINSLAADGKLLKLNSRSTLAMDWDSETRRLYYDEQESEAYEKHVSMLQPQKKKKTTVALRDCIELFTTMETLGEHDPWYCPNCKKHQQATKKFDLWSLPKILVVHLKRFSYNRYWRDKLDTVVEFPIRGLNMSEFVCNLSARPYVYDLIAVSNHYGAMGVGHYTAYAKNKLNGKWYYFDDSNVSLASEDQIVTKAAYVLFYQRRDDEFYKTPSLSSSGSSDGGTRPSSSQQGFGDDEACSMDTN
# Protocol: DUB Assay Substrate Substrate
# Buffer Concentration (nM) […]
# Sepharose® 4B resin (GE Healthcare).
# 10 kDa molecular weight cut-off (MWCO)).
# Fractions containing protein
# Protein concentration was […]
# reaction volume of 21 μL. […]
# compound (final concentration 5 nM).
# IC50 values were determined
# Biochemical DUB selectivity profiling assays […]
# in 40 µL total reaction volume.
# [4] = target: T2, DUBs and other proteins in HEK293 cells (Homo sapiens, UniProt Q9Y5K5); assay: In-cell proteome-wide competitive ABPP, HEK293: other DUBs and proteins; conditions: replicates A-C; for Log2 reporter intensity values: UCHL5: competition with ABP 2, DMSO substract (FC); for Log2 reporter intensity values: UCHL5, DMSO subtracted
# T2 sequence (Q9Y5K5 1-329): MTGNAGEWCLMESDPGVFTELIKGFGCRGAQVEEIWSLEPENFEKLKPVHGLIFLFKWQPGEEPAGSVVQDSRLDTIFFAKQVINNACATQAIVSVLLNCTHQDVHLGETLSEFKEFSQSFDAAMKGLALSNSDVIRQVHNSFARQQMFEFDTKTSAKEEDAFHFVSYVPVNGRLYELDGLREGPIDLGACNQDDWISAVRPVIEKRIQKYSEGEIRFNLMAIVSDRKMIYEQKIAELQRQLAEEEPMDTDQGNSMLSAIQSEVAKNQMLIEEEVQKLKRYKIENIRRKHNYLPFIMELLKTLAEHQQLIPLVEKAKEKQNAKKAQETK
# [5] = LDN at 5 μM, competition with ABP 2
# [6] = LDN at 25 μM, competition with ABP 2
structure (smiles),measurement,setting,value
C#Cc1cnc2[nH]cc(-c3cccc4c3CCN4C(=O)[C@@H]3CCCN3C#N)c2c1 [Compound 2],Log2 reporter intensity values: OTULIN,[1]; 20 nM ABP 2 alone,0.9844
same,Log2 reporter intensity values,[1]; 20 nM ABP 2,0.01067 and 0.1122 and -0.02265 and 0.006896 and 0.08034 and -0.01611
same,"Log2 reporter intensity values, COPS5","[2]; 20 nM ABP 2 (10 min), no competitor, All values",0.09368 and -0.02632 and 0.2453
same,"Log2 reporter intensity values, COPS5","[2]; 20 nM ABP 2 (10 min), no competitor, DMSO subtracted",0.1518 and 0.03179 and 0.3034
same,Log2 reporter intensity values: COPS5,[2]; 20 nM ABP 2 alone,1.111 and 1.022 and 1.234
same,Log2 reporter intensity values,"[2]; 20 nM ABP 2, DMSO subtracted",0.1518 and 0.03179 and 0.3034 and 0.1109 and 0.0222 and 0.2339
same,Log2 t-test Difference,[2]; ABP 2 - 20 nM,0.1623
same,Log2 reporter intensity values: PRPF8,[3]; 20 nM ABP 2 alone,0.8057 and 0.8767 and 0.8316
same,Log2 reporter intensity values,[3]; 20 nM ABP 2,-0.3117 and -0.1898 and -0.2661 and -0.1946 and -0.1687
same,IC50,USP4,> 10 µM
"CC(=O)O/N=C1\C(=O)N(Cc2cc(Cl)ccc2Cl)c2ccc(Cl)cc21 [LDN-57444, reference compound]",IC50,USP4,> 10 µM
CC(=O)O/N=C1\C(=O)N(Cc2cc(Cl)ccc2Cl)c2ccc(Cl)cc21 [LDN],Log2 reporter intensity values: OTULIN,[1]; [5],0.9147 and 1.064 and 1.028
same,Log2 reporter intensity values: OTULIN,[1]; [6],0.944 and 1.042 and 0.9874
same,Log2 reporter intensity values,[1]; LDN at 5 μM,-0.1287 and 0.0891 and 0.03957
same,Log2 reporter intensity values,[1]; LDN at 25 μM,-0.08321 and 0.05912 and -0.01826
same,Log2 reporter intensity values,[1]; LDN_5 μM,-0.08587 and 0.06318 and 0.02728
same,Log2 reporter intensity values,[1]; LDN_25 μM,-0.05657 and 0.0413 and -0.01311
same,"Log2 reporter intensity values, COPS5","[2]; 5 μM LDN-57444 (60 min) + 20 nM ABP 2 (10 min), All values",0.02618 and -0.0337 and -0.04942
same,"Log2 reporter intensity values, COPS5","[2]; 5 μM LDN-57444 (60 min) + 20 nM ABP 2 (10 min), DMSO subtracted",0.0843 and 0.02441 and 0.00869
same,"Log2 reporter intensity values, COPS5","[2]; 25 μM LDN-57444 (60 min) + 20 nM ABP 2 (10 min), All values",0.09342 and -0.06531 and -0.07503
same,"Log2 reporter intensity values, COPS5","[2]; 25 μM LDN-57444 (60 min) + 20 nM ABP 2 (10 min), DMSO subtracted",0.1515 and -0.007194 and -0.01692
same,Log2 t-test Difference,[2]; LDN - 5 μM,-0.1232
same,Log2 reporter intensity values,"[2]; LDN at 5 μM, DMSO subtracted",0.0843 and 0.02441 and 0.00869
same,Log2 reporter intensity values,"[2]; LDN at 25 μM, DMSO subtracted",0.1515 and -0.007194 and -0.01692
same,Log2 reporter intensity values,"[2]; LDN_5 μM, DMSO subtracted",0.06009 and 0.01698 and 0.005959
same,Log2 reporter intensity values,"[2]; LDN_25 μM, DMSO subtracted",0.1107 and -0.005057 and -0.01174
same,Log2 reporter intensity values: COPS5,[2]; [5],1.06 and 1.017 and 1.006
same,Log2 reporter intensity values: COPS5,[2]; [6],1.111 and 0.995 and 0.9883
same,Log2 reporter intensity values: UCHL5,[4]; LDN at 5 μM,1.097 and 1.066 and 1.089
same,Log2 reporter intensity values: UCHL5,[4]; LDN at 25 μM,0.9397 and 0.9601 and 0.908
same,Log2 reporter intensity values,[4]; LDN at 5 μM,0.134 and 0.09247 and 0.1227
same,Log2 reporter intensity values,[4]; LDN at 25 μM,-0.08966 and -0.05875 and -0.1393
same,Log2 reporter intensity values,[4]; LDN_5 μM,0.09668 and 0.06552 and 0.08811
same,Log2 reporter intensity values,[4]; LDN_25 μM,-0.06093 and -0.04058 and -0.09272
same,Log2 reporter intensity values: PRPF8,[3]; [5],0.8673 and 0.9446 and 0.9404
same,Log2 reporter intensity values: PRPF8,[3]; [6],0.9445 and 0.9891 and 0.9788
same,Log2 reporter intensity values,[3]; LDN at 5 μM,-0.2054 and -0.08218 and -0.0886
same,Log2 reporter intensity values,[3]; LDN at 25 μM,-0.08236 and -0.01582 and -0.0309
same,Log2 reporter intensity values,[3]; LDN_5 μM,-0.1329 and -0.05561 and -0.05981
same,Log2 reporter intensity values,[3]; LDN_25 μM,-0.05573 and -0.01115 and -0.02143
